Assay results reported in the supplement of paper PMC11208160.

Test: recombinant barcode read abundance after kanamycin selection (control-corrected) (log10(CPM+1)); higher = more efficient recombination; sequences stand for … in AGTGCAGAGAAAATCGGCCAGTTTTCTCTGCCTGCAGTCCGCATGCCGT…AGATTTATGCAGCGGACTGCCTTTCTCCCAAAGTGATAAACCGGACAGTATCATGGACCGGTTTTCCCGGTAATCCGTATTTGCAAGGTTGGTTTCACT; site = the 11-nt target
Outline: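 Targets were screened in pooled form in E. coli against IS621 bridge RNA target-binding loops. Recombination efficiency is based on barcode counts at recombinant junctions in counts per million, averaged and corrected for the control. Numbers are shown as log10(CPM+1), with duplicate plates on chloramphenicol/ampicillin LB agar (control) or chloramphenicol/ampicillin/kanamycin with 0.1 mM IPTG.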
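Further: IS621 recombinase and bridge RNA in Escherichia coli cells.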

Sequence	recombinant barcode read abundance (log10)
CGGTTGCCTTGGGTTCTAACCTGTTGCGT (site CGGTTGCCTAC)	2.48
GGATCCACTTGGGTTCTAACCTGTTGCCA (site GGATTCACTTG)	0.0388
GGGGCTACTTGGGTTCTAACCTGTTGCAC (site GGGGCTACTGT)	2.62
TATCGGGCTTGGGTTCTAACCTGTTGCAG (site ATGGACCCTGA)	0.0316
CGGAGTCCTTGGGTTCTAACCTGTTGCTA (site CGGAGTCCTTA)	0.774
CGATTATCTTGGGTTCTAACCTGTTGCCT (site CGATTACCTAG)	0.162
TGAGTACCTTGGGTTCTAACCTGTTGCTT (site TGAGTTCCTAA)	0.144
AGCTACTCTTGGGTTCTAACCTGTTGCTT (site AGCTACTCTAA)	0.694
CTACACTCTTGGGTTCTAACCTGTTGCCT (site CAACACTCTAG)	1.07
TCAGAGGCTTGGGTTCTAACCTGTTGCTG (site TCCGAGGCTCA)	0.118
GTCTCATCTTGGGTTCTAACCTGTTGCAT (site GTCTCATCTAT)	0.362
CTCATATCTTGGGTTCTAACCTGTTGCTT (site GAATGGACTTC)	0.0724
ATCAGTACTTGGGTTCTAACCTGTTGCCT (site ATCAGTACTAG)	0.307
AGCCGTACTTGGGTTCTAACCTGTTGCCT (site AGCCGTACTAG)	0.341
GATCAACCTTGGGTTCTAACCTGTTGCCT (site GATCAACCTAG)	1.62
AGTGCGGCTTGGGTTCTAACCTGTTGCCT (site TGTGCGGCTAG)	0.143
TCTTGTCCTTGGGTTCTAACCTGTTGCGT (site TCTTGTCCTTC)	0.0168
TTGCGAACTTGGGTTCTAACCTGTTGCAG (site TTGCGAACTCT)	0.455
AGGTCACCTTGGGTTCTAACCTGTTGCAT (site AGGTCACCTAA)	0.129
ATCAGGTCTTGGGTTCTAACCTGTTGCCT (site ACCAGGTCTAG)	0.18
GGGACTACTTGGGTTCTAACCTGTTGCCG (site GGGACTACTCG)	0.876
CGATCCACTTGGGTTCTAACCTGTTGCCT (site TGATCCACTAG)	0.0673

Sequence	recombinant barcode read abundance (log10)
TCTAAGACTTGGGTTCTAACCTGTTGCGC (site CTACCCTCTAG)	0.0242
CAAACTACTTGGGTTCTAACCTGTTGCAC (site CAAACTACTGT)	0.556
GTCACTACTTGGGTTCTAACCTGTTGCCG (site GTCCCTACTCG)	0.0387
ATGTGCACTTGGGTTCTAACCTGTTGCAG (site ATGTGCACTCT)	2.15
TCTTGTCCTTGGGTTCTAACCTGTTGCGA (site TCTTGTCCTGC)	0.343
CTCGGAACTTGGGTTCTAACCTGTTGCCT (site CTCGGATCTAG)	0.366
CAGTCTGCTTGGGTTCTAACCTGTTGCCT (site CAATCTGCTAG)	0.141
ATGGTGACTTGGGTTCTAACCTGTTGCCT (site ATGGTGGCTAG)	0.0522
ACGCACTCTTGGGTTCTAACCTGTTGCCT (site ACGCAATCTAG)	0.02
CGGCAGTCTTGGGTTCTAACCTGTTGCGT (site CGACAGTCTAC)	2.34
TTACGGGCTTGGGTTCTAACCTGTTGCGG (site TTACGGGCTCC)	2.58
TGAGTGGCTTGGGTTCTAACCTGTTGCCT (site TGAGTGGCTAG)	0.749
TACCTATCTTGGGTTCTAACCTGTTGCCT (site TTCCTATCTAG)	0.429
CGACGTACTTGGGTTCTAACCTGTTGCCT (site CGACGTACTAG)	0.151
GTTAACTCTTGGGTTCTAACCTGTTGCCT (site GTGAACTCTAG)	0.34
TCTGCGACTTGGGTTCTAACCTGTTGCCT (site TCTGCGACTAG)	0.265
CTCCATACTTGGGTTCTAACCTGTTGCCT (site CTCCATGCTAG)	0.23
TAGGACACTTGGGTTCTAACCTGTTGCGT (site TAGGACACTAC)	2.8
GCGGCTTCTTGGGTTCTAACCTGTTGCCT (site GGGGCTTCTAG)	0.0151
GTCGCCTCTTGGGTTCTAACCTGTTGCCT (site GTCCCCTCTAG)	0.491
CATCCTCCTTGGGTTCTAACCTGTTGCTG (site CATCCTACTCC)	0.463
AAGGGTTCTTGGGTTCTAACCTGTTGCCA (site AAGGGTTCTTG)	1.78

Sequence	recombinant barcode read abundance (log10)
AATTTGACTTGGGTTCTAACCTGTTGCCT (site AATTTGACTAG)	0.576
CTAAGCTCTTGGGTTCTAACCTGTTGCTG (site CTAAGCTCTTA)	0.349
TCTTATACTTGGGTTCTAACCTGTTGCAT (site TCTTATACTAT)	0.186
TAGGGCACTTGGGTTCTAACCTGTTGCTG (site TAGGGCACTCG)	0.888
ATAAGGGCTTGGGTTCTAACCTGTTGCCT (site ATAAATGCTAG)	0.183
ACATAAGCTTGGGTTCTAACCTGTTGCCT (site CATCGGACTCT)	0.116
AGCATTGCTTGGGTTCTAACCTGTTGCCT (site AGCTTTGCTAG)	0.0996
ACGTGCTCTTGGGTTCTAACCTGTTGCCT (site ACGTGCTCTAG)	1.32
CCGCGTGCTTGGGTTCTAACCTGTTGCCT (site CCGCGTGCTAG)	0.0933
GAGAGAACTTGGGTTCTAACCTGTTGCCT (site CCATAGGCTCA)	0.0856
GACATCCCTTGGGTTCTAACCTGTTGCCT (site GACATCACTAG)	0.045
CAACCGGCTTGGGTTCTAACCTGTTGCCT (site CAACCGACTAG)	0.0354
GGTCTAACTTGGGTTCTAACCTGTTGCCT (site GGTCGAACTAG)	0.128
CACGAGTCTTGGGTTCTAACCTGTTGCCT (site CACGAGTCTAG)	1.57
TACTTAACTTGGGTTCTAACCTGTTGCCT (site TACTGAACTAG)	0.0656
TATGCTTCTTGGGTTCTAACCTGTTGCTT (site TATGGTTCTAG)	0.0104
CGTCCTGCTTGGGTTCTAACCTGTTGCCT (site GGTCCTGCTAG)	0
GAGTGGCCTTGGGTTCTAACCTGTTGCAT (site GAGTGGCCTAT)	0.883
GCGCATCCTTGGGTTCTAACCTGTTGCCT (site GCGTATCCTAG)	0.0569
GTCCGTCCTTGGGTTCTAACCTGTTGCTT (site GTCCGTCCTAA)	0.907
AGAGTAGCTTGGGTTCTAACCTGTTGCTA (site CTCCCGACTGC)	0.0353
GTCCGTCCTTGGGTTCTAACCTGTTGCTT (site GTCCGTCCTAG)	0.249

Sequence	recombinant barcode read abundance (log10)
GTGTACCCTTGGGTTCTAACCTGTTGCCT (site GTGTACCCTAG)	0.918
TAGTACTCTTGGGTTCTAACCTGTTGCTA (site TAGTACTCTCA)	0.0859
TTACTAGCTTGGGTTCTAACCTGTTGCGT (site AGACTAGCTAC)	0.0536
GGTCTGCCTTGGGTTCTAACCTGTTGCCT (site GGTCTGCCTAG)	0.375
GGGGATTCTTGGGTTCTAACCTGTTGCCT (site GTGGATGCTAG)	0.0823
CCTTTGTCTTGGGTTCTAACCTGTTGCTT (site CCTTTGTCTAA)	0.243
ACGGGGTCTTGGGTTCTAACCTGTTGCCT (site ACGGGGTCTAG)	2.64
TCCACAACTTGGGTTCTAACCTGTTGCCT (site TCCACACCTAG)	0.122
CTCGGATCTTGGGTTCTAACCTGTTGCTA (site CTCGGATCTGA)	0.0177
CTCCAACCTTGGGTTCTAACCTGTTGCGG (site CTCCAACCTCC)	2.14
ATAAGGACTTGGGTTCTAACCTGTTGCTA (site ATAAGGACTTA)	2.01
AGAAGTCCTTGGGTTCTAACCTGTTGCGG (site AGAAGTCCTCT)	1.32
CCGAATGCTTGGGTTCTAACCTGTTGCCT (site CCGAATGCTAG)	0.188
GTTAACTCTTGGGTTCTAACCTGTTGCCT (site GTTAACTCTAG)	0.877
GGGTACACTTGGGTTCTAACCTGTTGCTA (site GGGTACACTTA)	2.12
AGAAAGGCTTGGGTTCTAACCTGTTGCGC (site GTGGGCACTAG)	0.0408
GGCAGGTCTTGGGTTCTAACCTGTTGCTT (site GGCAGATCTAA)	0.163
GCCCAATCTTGGGTTCTAACCTGTTGCCT (site GCCCTATCTAG)	0.195
GGTCGTGCTTGGGTTCTAACCTGTTGCCT (site GGTCGCGCTAG)	0
ACTAGACCTTGGGTTCTAACCTGTTGCCT (site ACTAGACCTAG)	0.5
